Results on three molecules are retold here after patent US20050245456A1, “Combination therapy to prevent and treat diarrhea induced by cancer treatment” (Pfizer Inc, priority 2004, published 2005).

For data set [1] the following is noted: cited from earlier work.
For data set [2] the following is noted: patients who experienced this side-effect during a previous course of chemotherapy; Cascinu et al. 1994; cited from earlier work.
The subject of data set [3] is MCF-7 breast cancer cells. As to conditions: Otto et al. 1996; cited from earlier work.
The nature of data set [4]: Phase 1 trial: diarrhea induced by the isothiazole derivative. In kind it is in vivo, human. As to conditions: almost all subjects at doses greater than 160 mg/day, within the first few days. As for the experimental part:
Susceptible subjects are encouraged to adhere to a daily schedule of prophylactic anti-diarrheal agents, such as Loperamide, Octreotide, Loperamide, Tamoxifen, a bulking agent, or an anti-estrogen. To treat the diarrhea in these patients, a therapeutically effective amount of 3-(4-Bromo-2,6-difluoro-benzyloxy)-5-[3-(4-pyrrolidin-1-yl-butyl)-ureido]-isothiazole-4-carboxylic acid amide HCl is administered to a patient in need of such therapy, prior to, simultaneously or sequentially with a therapeutically effective amount of Loperamide, Octreotide, Loperamide, Tamoxifen, a bulking agent, or an anti-estrogen.

In the case of `C[C@@H](O)[C@@H]1NC(=O)[C@H](CCCCN)NC(=O)[C@@H](Cc2c[nH]c3ccccc23)NC(=O)[C@H](Cc2ccccc2)NC(=O)[C@@H](NC(=O)[C@H](N)Cc2ccccc2)CSSC[C@@H](C(=O)N[C@H](CO)[C@@H](C)O)NC1=O` [Octreotide], in data set [1] (11 patients with colorectal cancer, Kennedy et al. 1990), the “treatment of diarrhea after chemotherapy with 5-fluorouracil” value was “encouraging results”. The “efficacy versus Loperamide in therapy of 5-fluorouracil-induced diarrhea” value in data set [1] (randomized trial, Cascinu et al. 1993) is “more effective than Loperamide”. For the same molecule, in data set [2], the “prevention of diarrhea associated with cisplatin” value is “active in preventing diarrhea”.
For the molecule `CC/C(=C(\c1ccccc1)c1ccc(OCCN(C)C)cc1)c1ccccc1` [Tamoxifen], the “effect on cell cycle progression” value in data set [3] was “blocks cell cycle progression in G0/G1”.
`NC(=O)c1c(OCc2c(F)cc(Br)cc2F)nsc1NC(=O)NCCCCN1CCCC1` [3-(4-Bromo-2,6-difluoro-benzyloxy)-5-[3-(4-pyrrolidin-1-yl-butyl)-ureido]-isothiazole-4-carboxylic acid amide]: the “diarrhea developed by subjects (CTC grade)” value in data set [4] was “Grade 1 or 2 diarrhea”.
